Measurements: patent publication US12404279B2, “Deubiquitinase inhibitors and methods of use thereof” (Molecure S.A., priority 2021, dated 2025)
Structures can show the parent of a compound that is named as a salt.

Target: full-length USP7 (Homo sapiens (Human), UniProt Q93009)
Assay: Enzymatic assay to determine IC50 of USP7 inhibitors (Ubiquitin-Rhodamine 110 cleavage)
Assay type: biochemical
Settings: for inhibition at 1 µM: at 1 μM of the test compound, given where IC50 not determined yet, read-out: percent value of inhibition of USP7 activity; for IC50: 0.5 nM USP7, 0.5 μM Ubiquitin-Rhodamine 110, 45 min at 37° C.
Procedure: For the inhibitors disclosed herein, their potency was measured using the following method.
A 45 μl reaction volume containing full-length USP7 (0.5 nM) in 50 mM HEPES pH 7.5, 150 mM NaCl, 1 mM DTT, 1 mg/ml BSA and 0.05% Tween20 was assembled in wells of 96 well half area black flat bottom plates. Test compounds were first dissolved to 25 mM stocks in DMSO and subsequently introduced to enzyme 15 min after USP7 incubation with DTT at room temperature. The enzymatic reaction was started by adding 0.5 μM Ubiquitin-Rhodamine 110 (final concentration) and allowed to proceed for 45 min at 37° C., 250 RPM shaking before Rhodamine fluorescence (485 nm excitation/520 nm emission) was measured using Tecan Spark M10 plate reader.

full-length USP7, sequence (Q93009 whole entry): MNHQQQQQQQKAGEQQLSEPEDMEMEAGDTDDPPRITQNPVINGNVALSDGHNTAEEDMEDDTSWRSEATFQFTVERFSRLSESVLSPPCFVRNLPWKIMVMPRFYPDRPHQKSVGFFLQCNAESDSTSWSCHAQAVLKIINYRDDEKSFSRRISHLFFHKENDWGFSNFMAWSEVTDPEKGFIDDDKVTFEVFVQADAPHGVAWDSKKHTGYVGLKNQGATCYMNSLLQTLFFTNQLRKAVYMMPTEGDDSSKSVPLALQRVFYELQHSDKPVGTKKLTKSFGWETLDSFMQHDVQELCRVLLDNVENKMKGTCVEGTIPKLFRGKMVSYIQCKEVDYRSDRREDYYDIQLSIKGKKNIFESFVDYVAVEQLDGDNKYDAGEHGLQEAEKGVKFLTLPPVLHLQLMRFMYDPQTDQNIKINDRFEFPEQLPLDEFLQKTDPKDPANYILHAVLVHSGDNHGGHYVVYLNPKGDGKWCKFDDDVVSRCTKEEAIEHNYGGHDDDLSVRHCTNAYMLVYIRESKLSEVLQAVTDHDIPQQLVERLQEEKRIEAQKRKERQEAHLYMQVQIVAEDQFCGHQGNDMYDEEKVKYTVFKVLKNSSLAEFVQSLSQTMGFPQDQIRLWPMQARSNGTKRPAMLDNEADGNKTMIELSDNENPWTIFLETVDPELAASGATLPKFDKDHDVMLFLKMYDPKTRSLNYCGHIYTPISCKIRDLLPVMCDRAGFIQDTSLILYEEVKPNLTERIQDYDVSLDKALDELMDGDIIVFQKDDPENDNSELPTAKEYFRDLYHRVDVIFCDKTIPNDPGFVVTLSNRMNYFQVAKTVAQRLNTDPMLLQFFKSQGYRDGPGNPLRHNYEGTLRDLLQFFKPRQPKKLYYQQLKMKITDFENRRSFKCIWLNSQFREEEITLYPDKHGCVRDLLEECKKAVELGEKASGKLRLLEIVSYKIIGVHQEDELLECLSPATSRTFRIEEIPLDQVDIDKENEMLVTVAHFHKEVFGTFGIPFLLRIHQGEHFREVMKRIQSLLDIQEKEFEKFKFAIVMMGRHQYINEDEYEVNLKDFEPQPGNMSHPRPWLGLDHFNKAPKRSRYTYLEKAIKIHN

Compound	inhibition at 1 µM	IC50
CC1(C)C2C(=O)N(Cc3cc4nccc(-c5cc(F)cnc5O[C@H]5CCCNC5)c4s3)C(=O)C21 (stereo partly drawn) [Example 152, 3-((7-(5-fluoro-2-(((S)-piperidin-3-yl)oxy)pyridin-3-yl)thieno[3,2-b]pyridin-2-yl)methyl)-6,6-dimethyl-3-azabicyclo[3.1.0]hexane-2,4-dione dihydrochloride]	< 20%	–
Cc1cc(C#N)nc(-c2ccnc3cc(CN4C(=O)C5C(C4=O)C5(C)C)sc23)c1C(=O)N1CCN(C)C[C@@H]1C (stereo partly drawn) [Example 52, 6-(2-((6,6-dimethyl-2,4-dioxo-3-azabicyclo[3.1.0]hexan-3-yl)methyl)thieno[3,2-b]pyridin-7-yl)-5-((S)-2,4-dimethylpiperazine-1-carbonyl)-4-methylpicolinonitrile dihydrochloride]	–	< 0.5 µM
Cc1c([N+](=O)[O-])cc(-c2ccnc3cc(CN4C(=O)C5C(C4=O)C5(C)C)sc23)n1C[C@@H]1CNCCO1 (stereo partly drawn) [Example 154, 6,6-dimethyl-3-((7-(5-methyl-1-(((S)-morpholin-2-yl)methyl)-4-nitro-1H-pyrrol-2-yl)thieno[3,2-b]pyridin-2-yl)methyl)-3-azabicyclo[3.1.0]hexane-2,4-dione hydrochloride]	–	< 0.5 µM
Cc1cc(C(F)(F)F)nc(-c2ccnc3cc(CN4C(=O)N(C)C5(CC5)C4=O)sc23)c1NC1CCNC1 (racemic) [Example 145, 4-methyl-6-((7-(4-methyl-3-(pyrrolidin-3-ylamino)-6-(trifluoromethyl)pyridin-2-yl)thieno[3,2-b]pyridin-2-yl)methyl)-4,6-diazaspiro[2.4]heptane-5,7-dione dihydrochloride]	–	< 0.5 µM
Cc1cc(C#N)nc(-c2ccnc3cc(CN4C(=O)C5C(C4=O)C5(C)C)sc23)c1C(=O)N1CCNC[C@H]1C (stereo partly drawn) [Example 54, 6-(2-((6,6-dimethyl-2,4-dioxo-3-azabicyclo[3.1.0]hexan-3-yl)methyl)thieno[3,2-b]pyridin-7-yl)-4-methyl-5-((R)-2-methylpiperazine-1-carbonyl)picolinonitrile hydrochloride]	–	0.5 to 1 µM
Cc1nc(C(F)(F)F)cc(-c2ccnc3cc(CN4C(=O)C5C(C4=O)C5(C)C)sc23)c1NC(=O)C1CC(F)(F)C1 (stereo not drawn) [Example 86, N-(4-(2-((6,6-dimethyl-2,4-dioxo-3-azabicyclo[3.1.0]hexan-3-yl)methyl)thieno[3,2-b]pyridin-7-yl)-2-methyl-6-(trifluoromethyl)pyridin-3-yl)-3,3-difluorocyclobutane-1-carboxamide hydrochloride]	–	> 10 µM
Cc1ccnc(-c2ccnc3cc(CN4C(=O)C5C(C4=O)C5(C)C)sc23)c1C(=O)N1CCOCC1 (stereo not drawn) [Example 48, 6,6-dimethyl-3-((7-(4-methyl-3-(morpholine-4-carbonyl)pyridin-2-yl)thieno[3,2-b]pyridin-2-yl)methyl)-3-azabicyclo[3.1.0]hexane-2,4-dione hydrochloride]	< 20%	–
Cc1cc(C(F)(F)F)nc(-c2ccnc3cc(CN4C(=O)C5C(C4=O)C5(C)C)sc23)c1C(=O)N1CCN(C)CC1 (stereo not drawn) [Example 80, 6,6-dimethyl-3-((7-(4-methyl-3-(4-methylpiperazine-1-carbonyl)-6-(trifluoromethyl)pyridin-2-yl)thieno[3,2-b]pyridin-2-yl)methyl)-3-azabicyclo[3.1.0]hexane-2,4-dione dihydrochloride]	–	< 0.5 µM
Cc1cc(C#N)nc(-c2ccnc3cc(CN4C(=O)C5C(C4=O)C5(C)C)sc23)c1C(=O)N1CC(F)(F)C1 (stereo not drawn) [Example 51, 5-(3,3-difluoroazetidine-1-carbonyl)-6-(2-((6,6-dimethyl-2,4-dioxo-3-azabicyclo[3.1.0]hexan-3-yl)methyl)thieno[3,2-b]pyridin-7-yl)-4-methylpicolinonitrile hydrochloride]	–	< 0.5 µM
Cc1nc(C(F)(F)F)cc(-c2ccnc3cc(CN4C(=O)C5C(C4=O)C5(C)C)sc23)c1NC(=O)C(F)(F)F (stereo not drawn) [Example 62, N-(4-(2-((6,6-dimethyl-2,4-dioxo-3-azabicyclo[3.1.0]hexan-3-yl)methyl)thieno[3,2-b]pyridin-7-yl)-2-methyl-6-(trifluoromethyl)pyridin-3-yl)-2,2,2-trifluoroacetamide 2,2,2-trifluoroacetate]	–	1 to 10 µM
Cc1cc(Cl)cc(-c2ccnc3cc(CN4C(=O)C5C(C4=O)C5(C)C)sc23)c1NC1CCNC1 (stereo not drawn) [Example 175, 3-((7-(5-chloro-3-methyl-2-(pyrrolidin-3-ylamino)phenyl)thieno[3,2-b]pyridin-2-yl)methyl)-6,6-dimethyl-3-azabicyclo[3.1.0]hexane-2,4-dione hydrochloride]	–	< 0.5 µM
Cc1cc(C(F)(F)F)nc(-c2ccnc3cc(CN4C(=O)C5C(C4=O)C5(C)C)sc23)c1CN1CCCC1=O (stereo not drawn) [Example 39, 6,6-dimethyl-3-((7-(4-methyl-3-((2-oxopyrrolidin-1-yl)methyl)-6-(trifluoromethyl)pyridin-2-yl)thieno[3,2-b]pyridin-2-yl)methyl)-3-azabicyclo[3.1.0]hexane-2,4-dione dihydrochloride]	20 to 49%	–
Cc1nc(C(F)(F)F)cc(-c2ccnc3cc(CN4C(=O)C5C(C4=O)C5(C)C)sc23)c1O[C@H]1CCNC1 (stereo partly drawn) [Example 22]	–	0.5 to 1 µM
6-(2-((6,6-dimethyl-2,4-dioxo-3-azabicyclo[3.1.0]hexan-3-yl)methyl)thieno[3,2-b]pyridin-7-yl)-4-methyl-5-((S)-2-methylpiperazine-1-carbonyl)picolinonitrile hydrochloride [Example 47]	–	< 0.5 µM
Cc1cc(Cl)cc(-c2ccnc3cc(CN4C(=O)C5C(C4=O)C5(C)C)sc23)c1NC(=O)C1CCNCC1 (stereo not drawn) [Example 118, N-(4-chloro-2-(2-((6,6-dimethyl-2,4-dioxo-3-azabicyclo[3.1.0]hexan-3-yl)methyl)thieno[3,2-b]pyridin-7-yl)-6-methylphenyl)piperidine-4-carboxamide 2,2,2-trifluoroacetate]	–	< 0.5 µM
Cc1nc(C(F)(F)F)cc(-c2ccnc3cc(CN4C(=O)C5C(C4=O)C5(C)C)sc23)c1NC(=O)C1CCNCC1 (stereo not drawn) [Example 87, N-(4-(2-((6,6-dimethyl-2,4-dioxo-3-azabicyclo[3.1.0]hexan-3-yl)methyl)thieno[3,2-b]pyridin-7-yl)-2-methyl-6-(trifluoromethyl)pyridin-3-yl)piperidine-4-carboxamide hydrochloride]	–	1 to 10 µM
Cc1cc(C(F)(F)F)nc(-c2ccnc3cc(CN4C(=O)C5C(C4=O)C5(C)C)sc23)c1C(=O)N1CC[C@H](O)C1 (stereo partly drawn) [Example 113, 3-((7-(3-((S)-3-hydroxypyrrolidine-1-carbonyl)-4-methyl-6-(trifluoromethyl)pyridin-2-yl)thieno[3,2-b]pyridin-2-yl)methyl)-6,6-dimethyl-3-azabicyclo[3.1.0]hexane-2,4-dione hydrochloride]	–	< 0.5 µM
Cc1cc(Cl)nc(-c2ccnc3cc(CN4C(=O)C5C(C4=O)C5(C)C)sc23)c1NC1CNC1 (stereo not drawn) [Example 122, 3-((7-(3-(azetidin-3-ylamino)-6-chloro-4-methylpyridin-2-yl)thieno[3,2-b]pyridin-2-yl)methyl)-6,6-dimethyl-3-azabicyclo[3.1.0]hexane-2,4-dione tetrahydrochloride]	–	< 0.5 µM
